Measured values reported in BindingDB's records for PubMed 7791071 (Rhone-Poulenc Rorer Central Research, 1995).
pKi: −log10 of the molar value. “And” between values parts separate entries of the source, which are not always exact repeats. Equal values may be shown once.

Biological target: T1, Cholecystokinin (Sus scrofa, UniProt P01356)
T1 sequence (P01356 whole entry): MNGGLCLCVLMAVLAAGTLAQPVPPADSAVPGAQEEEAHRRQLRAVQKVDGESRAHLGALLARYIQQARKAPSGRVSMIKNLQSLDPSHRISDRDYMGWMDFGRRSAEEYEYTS

| SMILES | pKi |
| --- | --- |
| CSCC[C@H](NC(=O)[C@H](Cc1c[nH]c2ccccc12)NC(=O)CCNC(=O)OC(C)(C)C)C(=O)N[C@@H](CC(=O)O)C(=O)N[C@@H](Cc1ccccc1)C(N)=O [CAS_5534-95-2] | 8.48 and 8.22 |
| CN1C(=O)[C@@H](NC(=O)c2cc3ccccc3[nH]2)N=C(c2ccccc2)c2ccccc21 [1H-Indole-2-carboxylic acid (1-methyl-2-oxo-5-phenyl-2,3-dihydro-1H-benzo[e][1,4]diazepin-3-yl)-amide: 0.1C4H10O. 0.15CH2Cl2] | 6.85 and 7.06 |
| Cc1cccc(NC(=O)N[C@H]2N=C(c3ccccc3)c3ccccc3N(C)C2=O)c1 | 8.14 and 8.32 |
| CSCC[C@H](NC(=O)[C@H](Cc1ccc(OS(=O)(=O)O)cc1)NC(=O)[C@@H](N)CC(=O)O)C(=O)NCC(=O)N[C@@H](Cc1c[nH]c2ccccc12)C(=O)N[C@@H](CCSC)C(=O)N[C@@H](CC(=O)O)C(=O)N[C@@H](Cc1ccccc1)C(N)=O [(3S)-3-[(2S)-2-[(2S)-2-{2-[(2S)-2-[(2S)-2-[(3S)-3-amino-3-formamidopropanoic acid]-3-[4-(sulfooxy)phenyl]propanamido]-4-(methylsulfanyl)butanamido]acetamido}-3-(1H-indol-3-yl)propanamido]-4-(methylsulfanyl)butanamido]-3-{[(1S)-1-carbamoyl-2-phenylethyl]carbamoyl}propanoic acid] | 9.37 and 8.96 |
| O=C(NC(Cc1c[nH]c2ccccc12)C(=O)O)c1ccc(Cl)cc1 (stereo unspecified) | < 5.00 |
| CC(Cc1c[nH]c2ccccc12)(NC(=O)OC1C2CC3CC(C2)CC1C3)C(=O)NCC(NC(=O)CCC(=O)O)c1ccccc1 (stereo unspecified) [NSC_108186] | 9.34 and 8.70 |
